Experimental data published in ChEMBL document CHEMBL3044672, “N9- and N7-(Chloromethyl Phenymethyl)Chloropurine Derivatives from , '-Dichloroxylenes: Synthesis and Anticancer Activity” (2005).

Columns and labels:
Format in all cases: functional
[1] = Cytotoxicity against Homo sapiens (human) NCI-ADR-RES cells after 48 hr by sulforhodamine B assay
A549 = experiment: Cytotoxicity against Homo sapiens (human) A549 cells after 48 hr by sulforhodamine B assay; details: A549, 48 h
UACC-257 = experiment: Cytotoxicity against Homo sapiens (human) UACC257 cells after 48 hr by sulforhodamine B assay; details: UACC-257, 48 h
SN12C = experiment: Cytotoxicity against Homo sapiens (human) SN12C cells after 48 hr by sulforhodamine B assay
SF-268 = experiment: Cytotoxicity against Homo sapiens (human) SF268 cells assessed as cell growth at 10^-4 M after 48 hr by […] assay; details: SF-268, 48 h, read-out: Activity
UACC-62 = experiment: Cytotoxicity against Homo sapiens (human) UACC62 cells after 48 hr by sulforhodamine B assay; details: UACC-62, 48 h
EKVX = experiment: Cytotoxicity against Homo sapiens (human) EKVX cells after 48 hr by sulforhodamine B assay
K562 = experiment: Cytotoxicity against Homo sapiens (human) K562 cells after 48 hr by sulforhodamine B assay; details: K562, 48 h
MDA-MB-231 = experiment: Cytotoxicity against Homo sapiens (human) MDA-MB-231 cells after 48 hr by sulforhodamine B assay; details: MDA-MB-231, 48 h
CAKI-1 = experiment: Cytotoxicity against Homo sapiens (human) Caki1 cells after 48 hr by sulforhodamine B assay; details: CAKI-1, 48 h
HOP-62 = experiment: Cytotoxicity against Homo sapiens (human) HOP62 cells after 48 hr by sulforhodamine B assay; details: HOP-62, 48 h
RXF 393 = experiment: Cytotoxicity against Homo sapiens (human) RXF393 cells after 48 hr by sulforhodamine B assay; details: RXF 393, 48 h
COLO 205 = experiment: Cytotoxicity against Homo sapiens (human) COLO205 cells after 48 hr by sulforhodamine B assay; details: COLO 205, 48 h
NCI-H322M = experiment: Cytotoxicity against Homo sapiens (human) NCI-H322M cells after 48 hr by sulforhodamine B assay
SK-MEL-5 = experiment: Cytotoxicity against Homo sapiens (human) SK-MEL-5 cells after 48 hr by sulforhodamine B assay; details: SK-MEL-5, 48 h
SF-539 = experiment: Cytotoxicity against Homo sapiens (human) SF539 cells after 48 hr by sulforhodamine B assay; details: SF-539, 48 h
SK-MEL-2 = experiment: Cytotoxicity against Homo sapiens (human) SK-MEL-2 cells after 48 hr by sulforhodamine B assay; details: SK-MEL-2, 48 h
U-251 = experiment: Cytotoxicity against Homo sapiens (human) U251 cells after 48 hr by sulforhodamine B assay; details: U-251, 48 h
IGROV-1 = experiment: Cytotoxicity against Homo sapiens (human) IGROV1 cells after 48 hr by sulforhodamine B assay; details: IGROV-1, 48 h
HT-29 = experiment: Cytotoxicity against Homo sapiens (human) HT-29 cells after 48 hr by sulforhodamine B assay; details: HT-29, 48 h
NCI-H226 = experiment: Cytotoxicity against Homo sapiens (human) NCI-H226 cells after 48 hr by sulforhodamine B assay; details: NCI-H226, 48 h
KM12 = experiment: Cytotoxicity against Homo sapiens (human) KM12 cells after 48 hr by sulforhodamine B assay; details: KM12, 48 h
OVCAR-3 = experiment: Cytotoxicity against Homo sapiens (human) OVCAR3 cells after 48 hr by sulforhodamine B assay; details: OVCAR-3, 48 h
PC-3 = experiment: Cytotoxicity against Homo sapiens (human) PC3 cells after 48 hr by sulforhodamine B assay; details: PC-3, 48 h
NCI-H522 = experiment: Cytotoxicity against Homo sapiens (human) NCI-H522 cells after 48 hr by sulforhodamine B assay; details: NCI-H522, 48 h
MDA-MB-435 = experiment: Cytotoxicity against Homo sapiens (human) MDA-MB-435 cells after 48 hr by sulforhodamine B assay; details: MDA-MB-435, 48 h
NCI-H23 = experiment: Cytotoxicity against Homo sapiens (human) NCI-H23 cells after 48 hr by sulforhodamine B assay; details: NCI-H23, 48 h
HCC 2998 = experiment: Cytotoxicity against Homo sapiens (human) HCC2998 cells after 48 hr by sulforhodamine B assay; details: HCC 2998, 48 h
[2] = read-out: LC50 (the source's name)

For ClCc1ccc(Cn2cnc3ncnc(Cl)c32)cc1, which GI50 [1] is on record?
The GI50 was 1.81 µM.

And the LC50 (concentration killing 50% of cells) [1]?
Its LC50 (concentration killing 50% of cells) is 15.5 µM.

And the TGI [1]?
The TGI was 4.67 µM.

And the GI50 (A549)?
The GI50 was 1.81 µM.

And the TGI (A549)?
Its TGI is 4.16 µM.

What about the CC50 (A549; [2]) of the same molecule?
The CC50 was 9.33 µM.

And the GI50 (UACC-257)?
The GI50 was 1.58 µM.

What about the LC50 (concentration killing 50% of cells) (UACC-257) of the same molecule?
The LC50 (concentration killing 50% of cells) was 7.76 µM.

And the TGI (UACC-257)?
The TGI was 3.46 µM.

And the GI50 (SN12C)?
Its GI50 is 3.63 µM.

What about the LC50 (50% lethal concentration) (SN12C) of the same molecule?
Its LC50 (50% lethal concentration) is 40.7 µM.

What about the TGI (SN12C) of the same molecule?
The TGI was 14.8 µM.

And the growth at 100 µM (SF-268)?
The growth at 100 µM was 1%.

And the GI50 (UACC-62)?
The GI50 was 2.51 µM.

What about the LC50 (concentration causing 50% net cell kill) (UACC-62) of the same molecule?
The LC50 (concentration causing 50% net cell kill) was 34.7 µM.

What about the TGI (UACC-62) of the same molecule?
Its TGI is 12 µM.

What about the GI50 (EKVX) of the same molecule?
Its GI50 is 2.23 µM.

What about the TGI (EKVX) of the same molecule?
Its TGI is 4.46 µM.

And the CC50 (EKVX; [2])?
Its CC50 is 8.7 µM.

What about the GI50 (K562) of the same molecule?
The GI50 was 3.01 µM.

What about the TGI (K562) of the same molecule?
The TGI was over 100 µM.

What about the CC50 (K562; [2]) of the same molecule?
Its CC50 is over 100 µM.

And the GI50 (MDA-MB-231)?
The GI50 was 1.77 µM.

And the LC50 (MDA-MB-231)?
The LC50 was 6.3 µM.

And the TGI (MDA-MB-231)?
Its TGI is 3.38 µM.

What about the GI50 (CAKI-1) of the same molecule?
The GI50 was 1.99 µM.

And the TGI (CAKI-1)?
The TGI was 4.46 µM.

What about the CC50 (CAKI-1; [2]) of the same molecule?
Its CC50 is 9.77 µM.

What about the GI50 (HOP-62) of the same molecule?
The GI50 was 1.77 µM.

What about the TGI (HOP-62) of the same molecule?
Its TGI is 3.16 µM.

What about the CC50 (HOP-62; [2]) of the same molecule?
Its CC50 is 5.62 µM.

What about the GI50 (RXF 393) of the same molecule?
The GI50 was 1.65 µM.

And the TGI (RXF 393)?
The TGI was 4.16 µM.

What about the CC50 (RXF 393; [2]) of the same molecule?
The CC50 was 12 µM.

What about the GI50 (COLO 205) of the same molecule?
Its GI50 is 1.9 µM.

What about the TGI (COLO 205) of the same molecule?
The TGI was 3.8 µM.

And the CC50 (COLO 205; [2])?
The CC50 was 7.41 µM.

What about the GI50 (NCI-H322M) of the same molecule?
The GI50 was 1.62 µM.

What about the TGI (NCI-H322M) of the same molecule?
The TGI was 3.01 µM.

What about the CC50 (NCI-H322M; [2]) of the same molecule?
Its CC50 is 5.62 µM.

What about the GI50 (SK-MEL-5) of the same molecule?
Its GI50 is 2.81 µM.

And the LC50 (SK-MEL-5)?
The LC50 was 34.7 µM.

What about the TGI (SK-MEL-5) of the same molecule?
The TGI was 12 µM.

And the GI50 (SF-539)?
The GI50 was 2.08 µM.

What about the LC50 (concentration killing 50% of cells) (SF-539) of the same molecule?
The LC50 (concentration killing 50% of cells) was 6.76 µM.

What about the TGI (SF-539) of the same molecule?
Its TGI is 3.71 µM.

What about the GI50 (SK-MEL-2) of the same molecule?
The GI50 was 6.3 µM.

What about the LC50 (concentration killing 50% of cells) (SK-MEL-2) of the same molecule?
The LC50 (concentration killing 50% of cells) was over 100 µM.

What about the TGI (SK-MEL-2) of the same molecule?
The TGI was over 100 µM.

What about the GI50 (U-251) of the same molecule?
Its GI50 is 1.09 µM.

And the LC50 (concentration killing 50% of cells) (U-251)?
The LC50 (concentration killing 50% of cells) was 4.78 µM.

And the TGI (U-251)?
Its TGI is 2.29 µM.

What about the GI50 (IGROV-1) of the same molecule?
Its GI50 is 7.58 µM.

What about the LC50 (IGROV-1) of the same molecule?
The LC50 was over 100 µM.

And the TGI (IGROV-1)?
The TGI was 30.9 µM.

What about the GI50 (HT-29) of the same molecule?
Its GI50 is 1.23 µM.

What about the TGI (HT-29) of the same molecule?
The TGI was 3.63 µM.

What about the CC50 (HT-29; [2]) of the same molecule?
Its CC50 is 56.2 µM.

And the GI50 (NCI-H226)?
The GI50 was 3.01 µM.

What about the TGI (NCI-H226) of the same molecule?
The TGI was 12 µM.

And the CC50 (NCI-H226; [2])?
Its CC50 is 37.1 µM.

What about the GI50 (KM12) of the same molecule?
The GI50 was 1.65 µM.

What about the TGI (KM12) of the same molecule?
Its TGI is 3.38 µM.

What about the CC50 (KM12; [2]) of the same molecule?
The CC50 was 7.07 µM.

What about the GI50 (OVCAR-3) of the same molecule?
The GI50 was 1.81 µM.

What about the LC50 (OVCAR-3) of the same molecule?
Its LC50 is 6.3 µM.

What about the TGI (OVCAR-3) of the same molecule?
Its TGI is 3.38 µM.

What about the GI50 (PC-3) of the same molecule?
Its GI50 is 1.58 µM.

What about the LC50 (concentration causing 50% cell kill) (PC-3) of the same molecule?
The LC50 (concentration causing 50% cell kill) was 5.37 µM.

And the TGI (PC-3)?
The TGI was 2.95 µM.

And the GI50 (NCI-H522)?
The GI50 was 4.26 µM.

What about the TGI (NCI-H522) of the same molecule?
The TGI was over 100 µM.

What about the CC50 (NCI-H522; [2]) of the same molecule?
Its CC50 is over 100 µM.

And the GI50 (MDA-MB-435)?
The GI50 was 5.88 µM.

What about the LC50 (MDA-MB-435) of the same molecule?
The LC50 was 46.8 µM.

And the TGI (MDA-MB-435)?
Its TGI is 19.1 µM.

And the GI50 (NCI-H23)?
Its GI50 is 15.8 µM.

And the TGI (NCI-H23)?
The TGI was 30.9 µM.

And the CC50 (NCI-H23; [2])?
The CC50 was 58.9 µM.

What about the GI50 (HCC 2998) of the same molecule?
The GI50 was 1.41 µM.

What about the TGI (HCC 2998) of the same molecule?
The TGI was 2.88 µM.

And the CC50 (HCC 2998; [2])?
The CC50 was 5.75 µM.
